The experiment deals with Ubiquitin carboxyl-terminal hydrolase 30 (Homo sapiens) (UniProt Q70CQ3). The experiment is described as follows: ubiquitin-specific protease 30 DUB inhibitors, concentration-effect, biochemical, validation of primary actives (AID 1645865). Conditions: purified USP30, Ub-rhodamine cleavage, fluorescence, 2 h.

SMILES strings stand for the structures. pIC50: −log10 of the molar value. The source made the active and inactive calls.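 Rule for the calls: active = maximal inhibition of the USP30 enzyme reaching 30% or more across the dose series; inactive = the rest.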

Sequence of Ubiquitin carboxyl-terminal hydrolase 30 (Homo sapiens) (Q70CQ3 whole entry, looked up): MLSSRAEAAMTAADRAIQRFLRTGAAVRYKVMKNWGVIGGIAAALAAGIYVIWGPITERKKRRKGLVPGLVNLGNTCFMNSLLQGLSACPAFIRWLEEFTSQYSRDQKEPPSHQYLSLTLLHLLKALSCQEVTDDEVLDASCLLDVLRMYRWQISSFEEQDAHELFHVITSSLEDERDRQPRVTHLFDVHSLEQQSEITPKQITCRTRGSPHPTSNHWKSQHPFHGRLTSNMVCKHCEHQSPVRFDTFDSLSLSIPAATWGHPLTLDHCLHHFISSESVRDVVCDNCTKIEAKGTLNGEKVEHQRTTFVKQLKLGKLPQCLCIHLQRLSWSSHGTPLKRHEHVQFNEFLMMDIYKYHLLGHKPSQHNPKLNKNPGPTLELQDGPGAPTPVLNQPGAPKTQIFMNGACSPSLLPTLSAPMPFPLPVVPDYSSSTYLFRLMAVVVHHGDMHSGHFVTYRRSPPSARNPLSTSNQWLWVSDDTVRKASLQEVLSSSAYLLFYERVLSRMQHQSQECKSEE

Broadly, the pIC50 is −log10 of the IC50, conventionally taken in molar units. In the case of `CC(C)(C)c1ccc(Cn2nnc3c(=O)[nH]c(C4CCN(S(=O)(=O)c5ccc(S(=O)(=O)NC6CC6)cc5)CC4)nc32)cc1`, the pIC50 was 4.31.
The IC50 is the concentration that inhibits the measured activity by half. Take `Nc1ccccc1SC(CC(=O)c1ccc(Cl)cc1)c1ccsc1` (stereo unspecified): the IC50 was > 50 µM (inactive).
In the case of `Cc1cnc(CN2CCCC(c3ccc4cn[nH]c4n3)C2)cn1` (stereo unspecified), the IC50 is > 50 µM (inactive).
`Cc1cccc(C(=O)NCc2nc3ccccc3n2Cc2ccccc2C)c1`: the pIC50 is 4.38.
Same read-out and setting: next, `CCCCCCCCCC(CCCCCCCCCC(=O)O)O[C@H]1O[C@@H](COC(C)=O)[C@H](O)[C@@H](O)[C@H]1OC(=O)CC(=O)O` (stereo partly specified): 4.66.
For `Cc1noc(NS(=O)(=O)c2ccc(NC(=O)CSc3ccc4ccccc4c3)cc2)c1C`, the IC50 is > 50 µM (inactive).
Same read-out and setting: next, `CCCc1nc2sc3c(NCc4ccco4)ncnc3c2c2c1CCC2`: > 50 µM (inactive).
Turning to `O=C(CCc1nnc2n(Cc3ccccc3Cl)c(=O)c3ccccc3n12)NCc1ccccn1`, the pIC50 was 4.59.
On the same count and under the same terms, next, `CCOCCCn1c(SCC(=O)Nc2ccccc2C(F)(F)F)nc2ccccc2c1=O`: 4.77.
As for `COc1ccccc1NC(=O)CSC1=NC2(CCCCC2)Nc2ccccc21`, the IC50 was > 50 µM (inactive).
For `CCCC(=O)c1c[nH]c(C(=O)NCc2ccc(F)cc2)c1`, the pIC50 was 4.76.
For the compound `CSc1nc2ncn(CC(=O)Nc3cccc(Cl)c3)c(=O)c2s1`, the pIC50 was 5.32.
As for `Cc1ccccc1Cn1ccc(NC(=O)c2noc(C)c2[N+](=O)[O-])n1`, the IC50 was > 50 µM (inactive).
The same measure, in the same setting: next, `COc1cc(C(=O)Nc2ccc(-c3csc(C)n3)cc2)cc(OC)c1OC`: > 50 µM (inactive); `COc1cccc2c1C(=O)c1ccc3c(c1C2=O)C(=O)CC(C)(O)C3` (stereo unspecified): > 50 µM (inactive).
On to `O=c1c2ccccc2ncn1C1CCN(S(=O)(=O)c2ccccc2F)CC1`, for which the pIC50 was 4.51.
Consider `O=C(NC1CCCCC1)c1cc2c(cn1)[nH]c1ccccc12`, for which the IC50 is > 50 µM (inactive).
Consider `CCCC(=O)Nc1nc2ccc(CCC(=O)NCc3ccc(F)cc3)cc2s1`, for which the pIC50 was 4.47.
The same measure, in the same setting: the figure for `O=C(CCCn1c(=O)c2ccccc2n(CC(=O)NCc2ccccc2Cl)c1=O)NCc1ccc2c(c1)OCO2` is 5.77; for `Cc1c(C)c2ccc(OCC(=O)NCc3ccncc3)c(C)c2oc1=O` it is 4.51.
Same read-out and setting: next, `COc1ccc(C(=O)Nc2nc(-c3ccc4c(c3)NC(=O)CO4)c(C)s2)cc1OC`: 5.77.
Same read-out and setting: next, `CC(C)c1cc(NCc2ccccc2)n2nc(-c3cccnc3)nc2n1`: 4.70.
`CCC(C(=O)NCc1ccncc1)N(c1cccc(Cl)c1)S(C)(=O)=O` (stereo unspecified): the IC50 was > 50 µM (inactive).
The same measure, in the same setting: next, `CN1CCN(C(=O)c2cc(-c3ccn(-c4ccccc4)n3)n3ccccc23)CC1`: > 50 µM (inactive).
With `O=C(Nc1ccccc1)c1ccc2c(c1)CC(c1ccccc1)OC2=O` (stereo unspecified), the pIC50 is 5.11.
Consider `COc1cccc(CCNC(=O)CCn2c(=O)c(C)nc3cc(C)c(C)cc32)c1`, for which the IC50 is > 50 µM (inactive).
On the same count and under the same terms, next, `CN(C)c1ccc(CCN2CCc3nc4cccnc4cc3C2)cc1`: > 50 µM (inactive).
With `COc1c(Cl)ccc2c(=O)c3c(O)c4c5c(c3oc12)OCO[C@H]5[C@@H](OC)c1cc2c(c(O)c1-4)C(=O)N(C)[C@H](OC)[C@@H]2O`, the pIC50 is 5.31.
The same measure, in the same setting: the figure for `C[C@]12C(=O)N(c3ccc(C(=O)NCc4ccc(F)cc4)cc3)C(=O)N1CCc1c2[nH]c2ccccc12` is 4.45.
On to `c1ccc2c(c1)ccc1nnc(-c3ccc4c(c3)OCO4)n12`, for which the IC50 was > 50 µM (inactive).
Turning to `Cc1ccc2c(C)nc(Nc3ncc4c(n3)CC(c3ccco3)CC4=O)nc2c1` (stereo unspecified), the pIC50 was more than 7.30.
As to `CC(=O)c1ccc(NC(=O)/C(=C/c2ccco2)n2nnnc2-c2ccccc2)cc1`, the IC50 is > 50 µM (inactive).
On the same count and under the same terms, the figure for `O=C(/C=C/c1ccc(F)cc1)N1CCc2ccccc2C1` is > 50 µM (inactive).
In the case of `O=C(NCc1ccccc1Cl)C1CCCN(c2nc3ccsc3c(=O)s2)C1` (stereo unspecified), the pIC50 is 6.02.
Consider `O=C(/C=C/c1ccccc1)N1CCN(C2=NS(=O)(=O)c3ccccc32)CC1`, for which the IC50 was > 50 µM (inactive).
On to `CCC(=O)N1c2ccccc2NC2=C(C(=O)CC(c3ccccc3OCc3ccccc3)C2)C1c1ccccc1` (stereo unspecified), for which the pIC50 was 5.62.
On to `CCc1nc(-c2cc(C(=O)N3CCOCC3)c3ccccn23)cs1`, for which the IC50 is > 50 µM (inactive).
For the compound `CC1=CC(=O)C(C2=C(O)C(=O)C(C)=CC2=O)=C(O)C1=O`, the pIC50 is 4.44.
The same measure, in the same setting: next, `Cc1cc(C)cc(NC(=O)CSc2ccc(-c3ccncc3)nn2)c1`: 4.46; `CCc1ccccc1NC(=O)c1cc(-c2ccccn2)n[nH]1`: 4.62.
Take `CC(=O)c1oc2nc3c(c(-c4ccc(Cl)cc4)c2c1N)CCc1ccccc1-3`: the IC50 is > 50 µM (inactive).
For the compound `Cn1cc(CCNC(=O)c2cc3ccccc3[nH]2)c2cccnc21`, the IC50 is > 50 µM (inactive).
Take `O=C(NCc1ccccc1)Nc1cccc2ccccc12`: the pIC50 is 4.50.
Same read-out and setting: the figure for `O=C(Nc1ccccc1-c1nc2ccccc2[nH]1)c1sc2ccccc2c1Cl` is 5.75; for `O=C(CSc1ncnc2c1oc1ccccc12)NC1CCCC1` it is 4.68.
In the case of `COc1ccc(-c2cc(-c3nnc(CSc4nc5ccccc5n4C)o3)c3ccccc3n2)cc1OC`, the IC50 was > 50 µM (inactive).
For `CN1C(=O)[C@]23CC4=CC=C[C@H](O)[C@H]4N2C(=O)[C@@]1(CO)SS3`, the pIC50 is 5.42.
Turning to `CC1(C)CC(=O)C2=C(C1)Nc1ccccc1N(C(=O)C(F)(F)F)C2c1cccs1` (stereo unspecified), the IC50 was > 50 µM (inactive).
As to `CC(C)C(=O)Nc1ccc(N2CCN(Cc3ccc(F)cc3)C2=O)nc1`, the pIC50 was 4.42.
On to `O=C1c2ccccc2-n2c1nc1ccccc1c2=O`, for which the IC50 was > 50 µM (inactive).
Same read-out and setting: the figure for `CCCCNC(=O)c1cc2cccnc2n(Cc2ccccc2)c1=O` is > 50 µM (inactive); for `CC(C)(C)C(=O)Nc1ccc(SCc2nnc(-c3ccccc3)o2)cc1` it is > 50 µM (inactive).
Take `COc1ccccc1NC(=O)Nc1ccc(NC(=O)c2ccccc2O)cc1`: the pIC50 was 4.54.
On to `CC(=O)c1cc2c(=O)c3c(C(=O)O)c(O)c(O)cc3oc2c(C(C)=O)c1-c1coc2cc(O)c(O)c(C(=O)O)c2c1=O`, for which the pIC50 was 5.34.
Still for that read-out and setting: the figure for `O=C(CSc1ccc(-c2cccc([N+](=O)[O-])c2)nn1)Nc1cccc(F)c1` is 5.68.
Turning to `COc1cc(NC(=O)c2cc(CN3CCOCC3)on2)cc(OC)c1`, the IC50 was > 50 µM (inactive).
For the compound `Cc1oc2ccc(NS(=O)(=O)c3ccc(F)cc3)cc2c1C(=O)OCc1ccccc1`, the negative-log IC50 (pIC50) is 4.32.
In the case of `Cc1nn(-c2cccc(F)c2)c2c1C(C(=O)c1ccc(Cl)s1)CC(=O)N2` (stereo unspecified), the pIC50 was 4.49.
On the same count and under the same terms, next, `Cc1c(-c2nn3c(-c4ccco4)nnc3s2)cccc1[N+](=O)[O-]`: 5.59.
In the case of `c1ccc(CN2CCN(c3nc4ccccc4n4nnnc34)CC2)cc1`, the IC50 was > 50 µM (inactive).
As for `CSc1cccc(C(=O)Nc2ccc(-c3nc4ccccc4[nH]3)cc2)c1`, the pIC50 was 5.54.
The same measure, in the same setting: the figure for `O=C(Nc1ccccc1Cl)N(Cc1cc2cc3c(cc2[nH]c1=O)OCCO3)C1CCCCC1` is 4.45; for `COc1ccc2[nH]c3c(c2c1)CCN1C(=O)N(c2ccccc2C(=O)NCc2ccccc2)C(=O)[C@]31C` it is 4.55; for `Cc1ccccc1C(=O)c1ccc(C(=O)NC2CCCCCC2)[nH]1` it is 5.62.
Same read-out and setting: next, `COc1ccc2nc(SCC(=O)Nc3ccc(NC(C)=O)cc3)c(C)cc2c1`: 5.31.
On to `CCOC(=O)C1CCN(C(=O)c2ccc3c(c2)NC(=O)C2CCCN32)CC1` (stereo unspecified), for which the IC50 was > 50 µM (inactive).
In the case of `CCN(CC)c1cc(C)c2cc(NC(=O)c3ccncc3)ccc2n1`, the IC50 is > 50 µM (inactive).
Regarding `CC(OC(=O)c1ccc2c(c1)OCCO2)C(=O)NCC1CCCCC1` (stereo unspecified), the pIC50 is 4.50.
`Cc1cccc(O)c1-c1nc2c(-c3nc4c(C(=O)O)cccc4o3)cccc2o1`: the IC50 is > 50 µM (inactive).
Same read-out and setting: next, `Cc1cccc(NC(=O)Cn2c(-c3cnccn3)nc(C)c(C)c2=O)c1C`: > 50 µM (inactive).
Take `Cc1cccc(-n2cnc(C(=O)NCc3ccc(F)cc3)c2)n1`: the pIC50 was 4.35.
For the compound `C=C[C@]1(C)C=C2C(=O)[C@]3(O)OC(=O)[C@@]4(CCCC(C)(C)[C@H]34)[C@@]2(O)CC1`, the pIC50 is 4.56.
Turning to `Cc1ccc2[nH]c(=O)c(-c3nc4ccc(C)cn4c3NCc3ccc(F)cc3)cc2c1`, the pIC50 is 5.68.
Take `Cc1ccc2nc(CCc3ccc(NS(=O)(=O)c4cccc(Cl)c4C)cc3)[nH]c2c1`: the pIC50 was 4.35.
As to `C/C1=C/C=C/[C@H](C)[C@H](O)[C@@H](C)[C@@H](O)[C@@H](C)[C@H](O)[C@H](C)[C@@H](O)[C@@H](C)/C=C(/C)C(=O)c2c(O)c(C)cc3c2C(=O)C=C(NC1=O)C3=O`, the IC50 is > 50 µM (inactive).
`CCOC(=O)C1C(c2ccc(Br)cc2)C2(C(=O)c3ccccc3C2=O)C2C=Cc3ccccc3N12` (stereo unspecified): the IC50 was > 50 µM (inactive).
The same measure, in the same setting: the figure for `N#Cc1cccc(NC(=O)Cn2cccc(-c3nc(-c4ccccc4)no3)c2=O)c1` is > 50 µM (inactive).
For `CN(Cc1ccccc1)S(=O)(=O)c1ccc(S(=O)(=O)N2CCN(C(=O)c3cccnc3)CC2)cc1`, the pIC50 was 4.80.
Regarding `CN(C)C1CCN(C(=O)c2cc(-c3ccn(-c4ccccc4)n3)n3ccccc23)CC1`, the IC50 was > 50 µM (inactive).
Same read-out and setting: next, `Cc1nn(C)c2c1[C@@H](c1ccc(F)cc1)[C@H](NC(=O)c1ccccc1)C(=O)N2`: > 50 µM (inactive); `O=C(CN1C(=O)c2ccccc2Sc2ccc(C(=O)N3CCCC3)cc21)Nc1ccccc1Cl`: > 50 µM (inactive).
For `CCOc1ccc(CC(=O)Nc2ccc(-c3cn4cccnc4n3)cc2)cc1`, the IC50 was > 50 µM (inactive).
Consider `O=C(Cn1cc(C(=O)C(F)(F)F)c2ccccc21)N1CCc2ccccc21`, for which the pIC50 is 5.62.
Still for that read-out and setting: next, `O=C(COc1ncnc2ccccc12)Nc1ccc2c(c1)OC1(CCCC1)O2`: 4.38; `Cc1nc(-c2ccc(C(=O)NCc3ccc(F)cc3)cc2)cs1`: 4.42; `Cc1ccc(Cl)cc1NC(=O)c1cc(-c2ccccn2)n[nH]1`: 5.19.

(Values after PubChem BioAssay AID1645865 (Buhrlage Lab, Dana-Farber Cancer Institute and Novartis …, 2021).)
